What follows are cell lines tested with CC(C)C[C@H](NC(=O)[C@H](CCc1ccccc1)NC(=O)CN1CCOCC1)C(=O)N[C@@H](Cc1ccccc1)C(=O)N[C@@H](CC(C)C)C(=O)[C@@]1(C)CO1 [Carfilzomib] + Cc1cc(Nc2cc(N3CCN(C)CC3)nc(Sc3ccc(NC(=O)C4CC4)cc3)n2)n[nH]1 [Tozasertib] (partner 0.1 µM) (assay: relative viability (nuclei count vs DMSO), 5 days (fraction); higher = more cells survive). Settings: first compound 0.001 µM.
How it was run: (§1)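 For relative viability, nuclei counts in treated wells were divided by those in vehicle wells. Lung cancer cell lines had been pin-tool dosed in 1536-well plates the day after seeding and cultured for 5 days, then fixed and stained in one step (final 0.05% Triton X-100, 1% formaldehyde, 1 ug/ml Hoechst) and imaged at 4×. Doses were one drug alone or a fixed anchor-drug dose plus five library-drug doses (not always all listed) in √10 steps, and values are duplicate-plate medians.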

Going from ChaGo-K-1 to EKVX, the relative viability rises from 0.207 to 0.346.

Going from EMC-BAC-2 to EPLC-272H, the relative viability falls from 0.284 to 0.282.

Going from H3255 to HARA, the relative viability falls from 0.697 to 0.11.

First: HCC-15
Second: HCC-44
The relative viability of the first is lower: 0.385 for the first, 0.826 for the second.

First: HCC-78
Second: HCC-366
The relative viability of the first is higher: 0.356 for the first, 0.0847 for the second.

Compared with HCC-827, HOP-62 is higher in relative viability: 0.366 for the first, 0.37 for the second.

Compared with LC-2-ad, LCLC-97TM1 is lower in relative viability: 0.466 for the first, 0.25 for the second.

Going from LCLC-103H to LK-2, the relative viability falls from 0.467 to 0.181.

First: LOU-NH91
Second: LU99A
The relative viability of the first is higher: 0.742 for the first, 0.282 for the second.

Compared with LXF-289, NCI-H522 is higher in relative viability: 0.186 for the first, 0.491 for the second.

Compared with NCI-H1623, NCI-H2342 is higher in relative viability: 0.404 for the first, 0.495 for the second.

For SW 900, the relative viability was 0.508.

Same assay, conditions: first compound 0.003162 µM

First: 201T
Second: A-427
The relative viability of the first is higher: 1 for the first, 0.236 for the second.

First: ABC-1
Second: BEN
The relative viability of the first is lower: 0.193 for the first, 0.547 for the second.

First: CAL-12T
Second: COR-L23
The relative viability of the first is higher: 0.393 for the first, 0.319 for the second.

Going from COR-L 105 to ChaGo-K-1, the relative viability falls from 0.311 to 0.236.

Compared with EKVX, EMC-BAC-2 is lower in relative viability: 0.432 for the first, 0.298 for the second.

First: EPLC-272H
Second: H3255
The relative viability of the first is lower: 0.25 for the first, 0.604 for the second.

Going from HARA to HCC-15, the relative viability rises from 0.106 to 0.393.

Compared with HCC-44, HCC-78 is lower in relative viability: 1.05 for the first, 0.61 for the second.

First: HCC-366
Second: HCC-827
The relative viability of the first is lower: 0.132 for the first, 0.397 for the second.

First: HOP-62
Second: LC-2-ad
The relative viability of the first is lower: 0.405 for the first, 0.453 for the second.

Compared with LCLC-97TM1, LCLC-103H is higher in relative viability: 0.263 for the first, 0.511 for the second.

First: LK-2
Second: LOU-NH91
The relative viability of the first is lower: 0.172 for the first, 0.801 for the second.

Going from LU99A to LXF-289, the relative viability falls from 0.286 to 0.186.

First: NCI-H522
Second: NCI-H1623
The relative viability of the first is higher: 0.6 for the first, 0.443 for the second.

Going from NCI-H1648 to NCI-H2342, the relative viability falls from 0.556 to 0.473.

Cell Line SW 900 has a relative viability of 0.682.

Same assay, conditions: first compound 0.01 µM

First: 201T
Second: A-427
The relative viability of the first is higher: 1.04 for the first, 0.198 for the second.

Going from ABC-1 to BEN, the relative viability rises from 0.196 to 0.591.

Going from CAL-12T to COR-L23, the relative viability falls from 0.333 to 0.216.

Compared with COR-L 105, ChaGo-K-1 is lower in relative viability: 0.411 for the first, 0.224 for the second.

Going from EKVX to EMC-BAC-2, the relative viability falls from 0.435 to 0.305.

Compared with EPLC-272H, H3255 is higher in relative viability: 0.317 for the first, 0.686 for the second.

Compared with HARA, HCC-15 is higher in relative viability: 0.117 for the first, 0.385 for the second.

First: HCC-44
Second: HCC-78
The relative viability of the first is higher: 1.22 for the first, 0.401 for the second.

First: HCC-366
Second: HCC-827
The relative viability of the first is lower: 0.185 for the first, 0.47 for the second.

First: HOP-62
Second: LC-2-ad
The relative viability of the first is lower: 0.385 for the first, 0.498 for the second.

First: LCLC-97TM1
Second: LCLC-103H
The relative viability of the first is lower: 0.215 for the first, 0.408 for the second.

First: LK-2
Second: LOU-NH91
The relative viability of the first is lower: 0.159 for the first, 0.635 for the second.

First: LU99A
Second: LXF-289
The relative viability of the first is higher: 0.326 for the first, 0.104 for the second.

Compared with NCI-H522, NCI-H1623 is lower in relative viability: 0.653 for the first, 0.515 for the second.

Going from NCI-H1648 to NCI-H2342, the relative viability rises from 0.495 to 0.579.

With SW 900 the relative viability was 0.142.

Same assay, conditions: first compound 0.03162 µM

Compared with 201T, A-427 is lower in relative viability: 0.993 for the first, 0.099 for the second.

First: ABC-1
Second: BEN
The relative viability of the first is lower: 0.212 for the first, 0.553 for the second.

First: CAL-12T
Second: COR-L23
The relative viability of the first is higher: 0.251 for the first, 0.0505 for the second.

Compared with COR-L 105, ChaGo-K-1 is lower in relative viability: 0.263 for the first, 0.225 for the second.

Going from EKVX to EMC-BAC-2, the relative viability falls from 0.34 to 0.212.

First: EPLC-272H
Second: H3255
The relative viability of the first is lower: 0.105 for the first, 0.737 for the second.

Going from HARA to HCC-15, the relative viability rises from 0.0557 to 0.356.

Going from HCC-44 to HCC-78, the relative viability rises from 0.303 to 0.358.

First: HCC-366
Second: HCC-827
The relative viability of the first is lower: 0.106 for the first, 0.411 for the second.

Compared with HOP-62, LC-2-ad is higher in relative viability: 0.19 for the first, 0.279 for the second.

Going from LCLC-97TM1 to LCLC-103H, the relative viability rises from 0.205 to 0.518.

Compared with LK-2, LOU-NH91 is higher in relative viability: 0.179 for the first, 0.289 for the second.

Compared with LU99A, LXF-289 is lower in relative viability: 0.306 for the first, 0.0498 for the second.

Compared with NCI-H522, NCI-H1623 is higher in relative viability: 0.349 for the first, 0.434 for the second.

Compared with NCI-H1648, NCI-H2342 is higher in relative viability: 0.37 for the first, 0.543 for the second.

Work on SW 900 yielded a relative viability of 0.149.

Same assay, conditions: first compound 0.1 µM

First: 201T
Second: A-427
The relative viability of the first is higher: 0.754 for the first, 0.103 for the second.

Going from ABC-1 to BEN, the relative viability rises from 0.211 to 0.421.

First: CAL-12T
Second: COR-L23
The relative viability of the first is higher: 0.125 for the first, 0.0802 for the second.

First: COR-L 105
Second: ChaGo-K-1
The relative viability of the first is higher: 0.225 for the first, 0.157 for the second.

Going from EKVX to EMC-BAC-2, the relative viability falls from 0.281 to 0.194.

First: EPLC-272H
Second: H3255
The relative viability of the first is lower: 0.0498 for the first, 0.392 for the second.

First: HARA
Second: HCC-15
The relative viability of the first is lower: 0.0586 for the first, 0.0753 for the second.

First: HCC-44
Second: HCC-78
The relative viability of the first is lower: 0.157 for the first, 0.287 for the second.

Compared with HCC-366, HCC-827 is higher in relative viability: 0.0351 for the first, 0.265 for the second.

Compared with HOP-62, LC-2-ad is higher in relative viability: 0.0741 for the first, 0.24 for the second.

Compared with LCLC-97TM1, LCLC-103H is higher in relative viability: 0.107 for the first, 0.169 for the second.

First: LK-2
Second: LOU-NH91
The relative viability of the first is lower: 0.196 for the first, 0.246 for the second.

Going from LU99A to LXF-289, the relative viability falls from 0.123 to 0.0494.

Going from NCI-H522 to NCI-H1623, the relative viability falls from 0.346 to 0.294.

Compared with NCI-H1648, NCI-H2342 is higher in relative viability: 0.248 for the first, 0.385 for the second.

With SW 900 the relative viability was 0.164.

Each cell line was assayed with CC(C)C[C@H](NC(=O)[C@H](CCc1ccccc1)NC(=O)CN1CCOCC1)C(=O)N[C@@H](Cc1ccccc1)C(=O)N[C@@H](CC(C)C)C(=O)[C@@]1(C)CO1 [Carfilzomib] + COc1cccc2cc(-c3nc([C@H]4CC[C@H](C(=O)O)CC4)n4ncnc(N)c34)[nH]c12 [OSI-027] (partner 0.5 µM) in the same assay as above. Settings: first compound 0.001 µM.
How it was run: as §1

First: 201T
Second: A-427
The relative viability of the first is higher: 0.749 for the first, 0.47 for the second.

Compared with ABC-1, BEN is lower in relative viability: 0.431 for the first, 0.312 for the second.

Going from CAL-12T to COR-L23, the relative viability falls from 0.667 to 0.455.

First: COR-L 105
Second: ChaGo-K-1
The relative viability of the first is higher: 0.805 for the first, 0.414 for the second.
